Tests used:
[1] = cited from earlier work
[2] = oral CF101, healthy young men; cited from earlier work
[3] = system: Adjuvant induced Arthritis (AIA) rats; assay: Adjuvant induced arthritis (AIA) in rats, arthritis clinical score; format: in vivo, rat; conditions: female Lewis rats, CF101 10 μg/kg orally twice daily from day 14, MTX 0.25 or 0.75 mg/kg intraperitoneally every 3 days from day 14, versus vehicle
Procedure: Female Lewis rats, aged 8-12 weeks were obtained from Harlan Laboratories (Jerusalem, Israel). Rats were maintained on a standardized pelleted diet and supplied with tap water. Experiments were performed in accordance with the guidelines established by the Institutional Animal Care and Use Committee at Can-Fite BioPharma, Petah Tikva, Israel. The rats were injected subcutaneously (SC) at the tail base with 100 μl of suspension composed of incomplete Freund's adjuvant (IFA) with 10 mg/ml heat killed Mycobacterium tuberculosis, (Mt) H37Ra, (Difco, Detroit, USA). Each group contained 10 animals.
Treatment with CF101 (10 μg/kg) was initiated on day 14 after vaccination and was orally administered by gavage, twice daily. Another group was treated with Methotrexate (MTX) (0.25, 0.75 mg/kg) intraperitoneally every 3 days, starting on day 14th after vaccination. The control group in each experiment received vehicle only (DMSO in a dilution corresponding to that of the drugs).
Clinical Disease Activity Score was assessed as follows: the animals were inspected every second day for clinical arthritis. […] The clinical score was calculated by adding the four individual legs' score. The inflammatory intensity was also determined in accordance with the increase in the rat hind paw's diameter, measured by caliper (Mitotoyo, Tokyo, Japan).

SMILES | half life in mice [1] [h] | half life in human plasma [2] [h] | disease severity evaluated by the arthritis clinical score [3]
CNC(=O)[C@H]1OC(n2cnc3c(NCc4cccc(I)c4)ncnc32)[C@H](O)[C@@H]1O (stereo partly drawn) [CF101, 1-deoxy-1-[6-[[(3-iodophenyl)methyl]amino]-9H-purine-9-yl]-N-methyl-D-ribofuranuronamide] | 1.5 | 8 to 10 | significant decrease in disease severity
CN(Cc1cnc2nc(N)nc(N)c2n1)c1ccc(C(=O)N[C@@H](CCC(=O)O)C(=O)O)cc1 [MTX, Methotrexate, reference compound] |  |  | significant decrease in disease severity

— patent US20080051365A1, “Treatment of Inflammation” (CAN-FITE BIOPHARMA LTD., priority 2004, published 2008)
